Like-named read-outs stand apart in the source and are kept apart here.
Details: triazole bond
[1] = the molecule shown is the open-chain precursor, 17-membered ring, CuSO4/ascorbic acid, H2O/tBuOH 2:1, 0.08 mM, 25.0 °C

Substance | ring closure, yield after HPLC [1] | also measured
H-Gly-Gly-Phe-Nva(δN3)-Thr-Pro-Prg-Thr-OH? | 36% | 
H-Gly-Gly-Phe-Tyr-Nva(δN3)-Pro-Prg-Thr-OH? |  | ring closure, yield after HPLC (the molecule shown is the open-chain precursor, 14-membered ring, CuSO4/ascorbic acid, H2O/tBuOH 2:1, 0.08 mM, 25.0 °C): 52%
H-Gly-Phe-Phe-Nva(δN3)-Thr-Pro-Prg-Thr-OH | 40% | 
H-Gly-Phe-Phe-Prg-Thr-Pro-Nva(δN3)-Thr-OH? | 45% | 
H-Gly-Phe-Phe-Tyr-Nva(δN3)-Pro-Prg-Thr-OH? |  | ring closure, yield after HPLC (the molecule shown is the open-chain precursor, 14-membered ring, CuSO4/ascorbic acid, H2O/tBuOH 2:1, 25.0 °C): 37%
cyclo[GB23-G-F-(NMe)A-Nva(δN3)-P-Prg-TB30] |  | ring closure, yield after HPLC (14-membered ring, Cu(I)/TBTA): 49%

Reference: paper PMC4726324, “Rational steering of insulin binding specificity by intra-chain chemical crosslinking” (Scientific Reports, 2016)
